Laboratory results reported in patent US12365686B2, “Compound as porcupine inhibitor and use thereof” (JIANGSU KANION PHARMACEUTICAL CO., LTD., priority 2019, dated 2025).
Counter-ions that a name gives are not always drawn.

Experiments:
[1] = test system: STF reporter gene for WNT pathway (Porcupine of the Wnt signaling pathway); assay: Inhibitory activity on Super-Top-Flash (STF) reporter gene; assay type: cell-based; details: HEK293 STF and L wnt3A cells 1:1, 24 hours, Bright-Glo
Protocol: 1. Assay of Inhibitory Activity on Super-Top-Flash (STF) Reporter Gene
HEK293 STF and L wnt3A cells were planted at a ratio of 1:1 in a white 96-well plate with 80 μL of cell suspension per well, which contained 20,000 HEK293 STF cells and 20,000 L wnt3A cells. The cell plate was placed in a carbon dioxide incubator for culture overnight.
The assay compound was serially diluted 5-fold with a discharge gun to the 8th concentration, that is, from 400 μM to 5.12 nM, in duplicate. 78 μL of medium was added to the middle plate, and then 2 μL of the serially diluted compound was transferred to each well of the middle plate according to the corresponding position. After mixing, 20 μL of the mixture was transferred to each well of the cell plate. The cell plate was placed in a carbon dioxide incubator for 24 hours.
100 μL of Promega Bright-Glo reagent was added to each well of the cell plate, and the cell plate was incubated at room temperature for 10 minutes to stabilize the luminescence signal. A multi-label analyzer was used to read results.
The original data of the multi-label analyzer was used for calculation, and the value of IC50 can be obtained by curve fitting. Table 1 provides data of the inhibitory activity of the compounds of the present disclosure on the Wnt signaling pathway.

Capan-2 cells = assay: Anti-proliferative activity on Capan-2 cells; assay type: cell-based; details: Homo sapiens, Capan-2, 120 h; 5 days, CellTiter-Glo
Protocol: 2. Assay of Anti-Proliferative Activity on Capan-2 Cells
Capan-2 cells were planted in a white 96-well plate with 80 μL of cell suspension per well, which contained 5000 Capan-2 cells. The cell plate was placed in a carbon dioxide incubator for culture overnight.
The assay compound was serially diluted 3-fold with a discharge gun to the 9th concentration, that is, from 200 μM to 30 nM, in duplicate. 78 μL of medium was added to the middle plate, and then 2 μL of the serially diluted compound was transferred to each well of the middle plate according to the corresponding position. After mixing, 20 μL of the mixture was transferred to each well of the cell plate. The cell plate was incubated in a carbon dioxide incubator for 5 days. Another cell plate was prepared, and read on the day of drug addition. The signal value was used as the maximum value (The value of Max in the equation below) in data analysis. 25 μL of chemiluminescence detection reagent for cell viability was added to each well of this cell plate, and this cell plate was incubated at room temperature for 10 minutes to stabilize the luminescence signal. A multi-label analyzer was used to read results.
After the cell plate was cultured for 5 days, 25 μL of Promega CellTiter-Glo reagent was added to each well of the cell plate. The cell plate was incubated at room temperature for 10 minutes to stabilize the luminescence signal. A multi-label analyzer was used to read results.
The value of IC50 can be obtained by curve fitting. Table 2 provides the inhibitory activity of the compounds of the present disclosure on Capan-2 cell proliferation.

[2] = test system: human pancreatic cancer Capan-2 xenograft tumor; assay: In vivo drug efficacy on Capan-2 transplanted tumor in nude mice; details: for T/C % / TGI %: 5 mg/Kg, BID, 31 days, Capan-2 Xenograft model
Protocol: 3. Assay of In Vivo Drug Efficacy on Capan-2 Transplanted Tumor in Nude Mice
Capan-2 cells were cultured in McCoy's 5A medium, containing 10% fetal bovine serum FBS, in a 37° C. incubator with 5% CO2. Tumor cells were collected after passaging and growing to a suitable concentration and during the logarithmic growth phase. The cells resuspended in McCoy's 5A medium were counted and the cell suspension was adjusted to a concentration of 2×10^7/mL for inoculation.
Establishment of human pancreatic cancer Capan-2 xenograft tumor. Cells were collected and the concentration was adjusted to 2×10^7 (resuspend with McCoy's 5A medium to a cell suspension containing 50% Martigel). Under aseptic conditions, 0.1 mL of tumor cells was injected subcutaneously into the right back of the mouse, and the number of cells inoculated per mouse was 2×10^6. After the tumor was grown to a certain size, digital vernier calipers was used to measure the length (a) and width (b) of the tumor, and the tumor volume was calculated. The calculation formula of tumor volume (TV) was: TV=a×b^2/2.
Capan-2 tumor cells were inoculated. When the tumor was grown to about 150 cubic millimeters, mice were divided into groups with 6 mice in each group. The day of grouping was regarded as day 0, and the drug was administered on the day of grouping. During the assay, the animal's body weight and tumor size were measured twice a week, and the animal's clinical symptoms were observed and recorded every day. For each administration, the most recently weighed animal body weight was referred to.
The evaluation index of anti-tumor activity is relative tumor proliferation rate T/C (%), wherein T/C (%)>40% means ineffective, and T/C (%)<40% and statistically P<0.05 means effective. The calculation formula of T/C (%) is: T/C (%)=(TRTV/CRTV)×100%. TRTV is relative tumor volume of the treatment group, and CRTV is relative tumor volume of the negative control group. TGI (%)^b tumor inhibition rate=(average tumor volume or weight of negative control group-average tumor volume or weight of administration group)/average tumor volume or weight of negative control group×100%. TGI (%)^a=[(1−(average tumor volume of a certain administration group at the time of measurement-average tumor volume of the administration group at the beginning of the administration))/(average tumor volume of vehicle control group at the time of measurement-average tumor volume of the vehicle control group at the beginning of the administration)]×100%.

[3] = Pharmacokinetic evaluation of compounds in mice; assay type: in vivo; details: mouse, plasma, male CD-1 mice; for clearance / bioavailability / half-life / Vd: IV 0.5 mg/kg; for bioavailability / AUC(0-t): PO 2.5 mg/kg; for half-life: read-out: T1/2 IV (converted); for Vd: read-out: Vdss; for AUC(0-t): read-out: AUC0-last PO; for Cmax: single dose, route not stated (IV 0.5 mg/kg, PO 2.5 mg/kg)
Protocol: Assay 4: Pharmacokinetic Evaluation of Compounds
Assay purpose: Pharmacokinetics of compounds in […] mice was assayed.
CD-1 mice (male, 7-9 weeks old, Shanghai Slack)
The pharmacokinetic characteristics of rodents after intravenous (IV) and oral (PO) administration of compounds were assayed by standard protocols. In the assay, mice were given a single intravenous injection and oral administration. The vehicle for intravenous injection was water. The oral vehicle was 0.5% hypromellose. Four male CD-1 mice were used in this project. Two mice were administered intravenously at a dose of 0.5 mg/kg, and plasma samples were collected at 0 h (before administration) and 0.083, 0.25, 0.5, 1, 2, 4, 8, and 24 h after administration. The other two mice were orally administered by gavage at a dose of 2.5 mg/kg, and plasma samples were collected at 0 h (before administration) and 0.25, 0.5, 1, 2, 4, 8, and 24 h after administration. Whole blood samples within 24 hours were collected, and centrifuged at 3000 g for 15 minutes. The supernatant was separated to obtain a plasma sample, and protein was precipitated by adding 4 times volume of acetonitrile solution containing internal standard. The mixture was centrifuged to obtain a supernatant, and an equal volume of water was added to the obtained supernatant. The mixture was then centrifuged to obtain a supernatant for injection. The blood drug concentration was quantitatively analyzed by LC-MS/MS analysis method, and pharmacokinetic parameters were calculated, such as peak concentration (Cmax), clearance rate (CL), half-life (T1/2), […] (Vdss), area under the drug-time curve (AUC0-last), and bioavailability (F), etc.
The assay results are shown in Table 4: The compounds of the present disclosure have good pharmacokinetic properties.

SMILES	IC50 [1] [nM]	IC50 (Capan-2 cells) [nM]	further results
Cc1cc(-c2ncc(CNc3nccn4c(C(=O)Nc5ccccc5)cnc34)cc2C)ccn1 [15 (formate)]	0.15	–	–
Cc1cc(-c2ncc(CNc3nccn4c(-c5cccnc5)cnc34)cc2C)ccn1 [Compound 2]	0.12	4.26	–
Cc1cc(-c2ncc(CNc3nccn4c(-c5ccc(F)cc5)cnc34)cc2C)ccn1 [Compound 3]	0.96	–	–
Cc1cc(-c2ncc(CNc3nccn4c(-c5cnn(C)c5)cnc34)cc2C)ccn1 [Compound 4]	0.14	964	–
Cc1cc(-c2ncc(CNc3nccn4c(N5CCNCC5)cnc34)cc2C)ccn1 [Compound 5]	9.7	–	–
CC(=O)N1CCN(c2cnc3c(NCc4cnc(-c5ccnc(C)c5)c(C)c4)nccn23)CC1 [Compound 6]	0.58	–	–
Cc1cc(-c2ncc(CNc3nccn4c(-c5ccc(C#N)cc5)cnc34)cc2C)ccn1 [Compound 8]	6.56	109	–
COc1ccc(-c2cnc3c(NCc4cnc(-c5ccnc(C)c5)c(C)c4)nccn23)cc1 [Compound 9 (formate)]	8.95	103	–
Cc1cc(-c2ncc(CNc3nccn4c(C5CC5)cnc34)cc2C)ccn1 [Compound 10]	13.5	> 1000	–
Cc1cc(-c2ncc(CNc3nccn4c(-c5ccccc5)ncc34)cc2C)ccn1 [Compound 11]	0.05	–	T/C % [2]: 31.29%; TGI % [2]: 82.8%
Cc1cc(-c2ncc(CNc3nccn4c(C5CCN(C(C)C)CC5)cnc34)cc2C)ccn1 [Compound 13 (formate)]	0.56	–	–
Cc1cc(-c2ncc(CNc3nccn4c(-c5ccccc5)cnc34)cc2F)ccn1 [Compound 21]	–	0.43	–
Cc1cc(-c2ccc(CNc3nccn4c(-c5ccccc5)cnc34)cc2C#N)ccn1 [Compound 22 (formate)]	–	1.24	clearance [3]: 8.24 mL/min/kg; bioavailability [3]: 71.9%; half-life [3]: 3.13 h; Vd [3]: 1.09 L/kg; AUC(0-t) [3]: 11.9 µM·h; Cmax [3]: 1820 nM
Cc1cc(-c2ccc(CNc3nccn4c(-c5ccccc5)cnc34)cc2N(C)C)ccn1 [Compound 23]	–	0.74	–
Cc1cc(-c2ccc(CNc3nccn4c(-c5ccccc5)cnc34)c(F)c2)ccn1 [Compound 31]	–	4.7	–
Cc1cc(-c2ncc(C(C)Nc3nccn4c(-c5ccccc5)cnc34)cc2C)ccn1 (stereo not drawn) [Compound 32 (hydrochloride)]	–	3.04	–
Cc1cc(-c2ncc(CNc3nccn4c(-c5cc(F)cc(F)c5)cnc34)cc2OCCN(C)C)ccn1 [Compound 33]	–	2.3	T/C % [2]: 17.71%; TGI % [2]: 92.6%; clearance [3]: 35.1 mL/min/kg; bioavailability [3]: 37.4%; half-life [3]: 3.69 h; Vd [3]: 9.52 L/kg; AUC(0-t) [3]: 0.975 µM·h; Cmax [3]: 107 nM
Cc1cc(-c2ncc(CNc3nccn4c(-c5cc(F)cc(F)c5)cnc34)cc2OC2CCN(C)CC2)ccn1 [Compound 34]	–	1.9	–
Cc1cc(-c2ncc(C(CO)Nc3nccn4c(-c5ccccc5)cnc34)cc2C)ccn1 (stereo not drawn) [Compound 35]	–	10.1	–
Cc1cc(-c2ncc(CNc3nccn4c(-c5cc(F)cc(F)c5)cnc34)cc2F)ccn1 [Compound 36 (formate)]	–	0.21	T/C % [2]: 21%; TGI % [2]: 88.86%; clearance [3]: 6.5 mL/min/kg; bioavailability [3]: 50.6%; half-life [3]: 3.05 h; Vd [3]: 1.35 L/kg; AUC(0-t) [3]: 7.23 µM·h; Cmax [3]: 980 nM
Cc1cc(-c2ncc(CC(=O)Nc3ccc(-c4cnccn4)cn3)cc2C)ccn1 [LGK974, reference compound]	–	–	inhibitory effect on human pancreatic cancer Capan-2 xenograft tumor (in words) ([2]; 5 mg/Kg BID (twice a day) for 31 days): inhibitory effect; T/C % [2]: 36.33%; TGI % [2]: 78.3%

Continued, in another order:

IC50 [1] [nM]	SMILES	IC50 (Capan-2 cells) [nM]	further results
< 0.001	CC(=O)N1CCC(c2cnc3c(NCc4cnc(-c5ccnc(C)c5)c(C)c4)nccn23)CC1 [Compound 14]	–	–
< 0.001	Cc1cc(-c2ncc(CNc3nccn4c(C(=O)N(C)C)cnc34)cc2C)ccn1 [Compound 16]	–	–
0.23	Cc1cc(-c2ccc(CNc3nccn4c(-c5ccccc5)cnc34)cc2C)ccn1 [Compound 17]	1.45	–
0.0128	Cc1cc(CNc2nccn3c(-c4ccccc4)cnc23)cnc1-c1ccnn1C [Compound 18]	19.1	–
0.017	Cc1cc(-c2ccc(CNc3nccn4c(-c5ccccc5)cnc34)cn2)ccn1 [Compound 19]	4.61	–
0.4	COc1cc(-c2ncc(CNc3nccn4c(-c5ccccc5)cnc34)cc2C)ccn1 [Compound 20]	18.5	–
0.86	Cc1cc(-c2ncc(CNc3nccn4c(-c5cccc(Cl)c5)cnc34)cc2C)ccn1 [Compound 28 (hydrochloride)]	1.43	clearance [3]: 4.16 mL/min/kg; bioavailability [3]: 66.6%; half-life [3]: 2.6 h; Vd [3]: 0.553 L/kg; AUC(0-t) [3]: 15.1 µM·h; Cmax [3]: 2340 nM
0.38	Cc1cc(-c2ncc(CNc3nccn4c(-c5cccc(F)c5)cnc34)cc2C)ccn1 [Compound 29 (hydrochloride)]	0.35	clearance [3]: 5.05 mL/min/kg; bioavailability [3]: 89%; half-life [3]: 2.78 h; Vd [3]: 0.641 L/kg; AUC(0-t) [3]: 17.3 µM·h; Cmax [3]: 2640 nM
